Assay results published in the supplement of paper PMC10307832.

How the values were obtained:
Experiment in all cases: relative viability (nuclei count vs DMSO), 5 days (fraction); higher = more cells survive
Avagacestat + Tozasertib = compound: NC(=O)[C@@H](CCC(F)(F)F)N(Cc1ccc(-c2ncon2)cc1F)S(=O)(=O)c1ccc(Cl)cc1 [Avagacestat] + Cc1cc(Nc2cc(N3CCN(C)CC3)nc(Sc3ccc(NC(=O)C4CC4)cc3)n2)n[nH]1 [Tozasertib] (partner 0.1 µM)
Procedure, shortened: (§1)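 Medians of duplicate plates are given as relative viability. That measure is the nuclei count in treated wells divided by the count in vehicle wells. Counts were taken on 4× images of lung cancer cell lines in 1536-well plates, 5 days after pin-tool dosing the day after seeding with one drug alone or a fixed anchor-drug dose plus five library-drug doses (not always all listed) in √10 steps.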

Avagacestat + Dasatinib = compound: NC(=O)[C@@H](CCC(F)(F)F)N(Cc1ccc(-c2ncon2)cc1F)S(=O)(=O)c1ccc(Cl)cc1 [Avagacestat] + Cc1nc(Nc2ncc(C(=O)Nc3c(C)cccc3Cl)s2)cc(N2CCN(CCO)CC2)n1 [Dasatinib] (partner 0.075 µM)
Procedure, shortened: as §1

Avagacestat + Luminespib = compound: NC(=O)[C@@H](CCC(F)(F)F)N(Cc1ccc(-c2ncon2)cc1F)S(=O)(=O)c1ccc(Cl)cc1 [Avagacestat] + CCNC(=O)c1noc(-c2cc(C(C)C)c(O)cc2O)c1-c1ccc(CN2CCOCC2)cc1 [Luminespib] (partner 0.01 µM)
Procedure, shortened: as §1

Avagacestat + Phenformin = compound: NC(=O)[C@@H](CCC(F)(F)F)N(Cc1ccc(-c2ncon2)cc1F)S(=O)(=O)c1ccc(Cl)cc1 [Avagacestat] + N=C(N)NC(=N)NCCc1ccccc1 [Phenformin] (partner 250 µM)
Procedure, shortened: as §1

Avagacestat + OSI-027 = compound: NC(=O)[C@@H](CCC(F)(F)F)N(Cc1ccc(-c2ncon2)cc1F)S(=O)(=O)c1ccc(Cl)cc1 [Avagacestat] + COc1cccc2cc(-c3nc([C@H]4CC[C@H](C(=O)O)CC4)n4ncnc(N)c34)[nH]c12 [OSI-027] (partner 0.5 µM)
Procedure, shortened: as §1

Avagacestat + Foretinib = compound: NC(=O)[C@@H](CCC(F)(F)F)N(Cc1ccc(-c2ncon2)cc1F)S(=O)(=O)c1ccc(Cl)cc1 [Avagacestat] + COc1cc2c(Oc3ccc(NC(=O)C4(C(=O)Nc5ccc(F)cc5)CC4)cc3F)ccnc2cc1OCCCN1CCOCC1 [Foretinib] (partner 0.25 µM)
Procedure, shortened: as §1

Avagacestat = compound: NC(=O)[C@@H](CCC(F)(F)F)N(Cc1ccc(-c2ncon2)cc1F)S(=O)(=O)c1ccc(Cl)cc1 [Avagacestat]
Procedure, shortened: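 A plate was accepted only when its control CV was below 25% and the cells had doubled at least once. Viability is defined from nuclear counts as treated wells divided by vehicle wells, with the median taken across plates. That median covers lung cancer cell lines grown in 1536-well plates, dosed by pinning at five √10-spaced library-drug concentrations, and counted in MetaXpress from 4× Hoechst images after 5 days.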

Avagacestat + Vorinostat = compound: NC(=O)[C@@H](CCC(F)(F)F)N(Cc1ccc(-c2ncon2)cc1F)S(=O)(=O)c1ccc(Cl)cc1 [Avagacestat] + O=C(CCCCCCC(=O)Nc1ccccc1)NO [Vorinostat] (partner 1 µM)
Procedure, shortened: as §1

Avagacestat + Pemetrexed = compound: NC(=O)[C@@H](CCC(F)(F)F)N(Cc1ccc(-c2ncon2)cc1F)S(=O)(=O)c1ccc(Cl)cc1 [Avagacestat] + Nc1nc2[nH]cc(CCc3ccc(C(=O)N[C@@H](CCC(=O)O)C(=O)O)cc3)c2c(=O)[nH]1 [Pemetrexed] (partner 0.2 µM)
Procedure, shortened: as §1

Avagacestat + AZD7762 = compound: NC(=O)[C@@H](CCC(F)(F)F)N(Cc1ccc(-c2ncon2)cc1F)S(=O)(=O)c1ccc(Cl)cc1 [Avagacestat] + NC(=O)Nc1cc(-c2cccc(F)c2)sc1C(=O)N[C@H]1CCCNC1 [AZD7762] (partner 0.2 µM)
Procedure, shortened: as §1

Avagacestat + Trametinib = compound: NC(=O)[C@@H](CCC(F)(F)F)N(Cc1ccc(-c2ncon2)cc1F)S(=O)(=O)c1ccc(Cl)cc1 [Avagacestat] + CC(=O)Nc1cccc(-n2c(=O)n(C3CC3)c(=O)c3c(Nc4ccc(I)cc4F)n(C)c(=O)c(C)c32)c1 [Trametinib] (partner 0.02 µM)
Procedure, shortened: as §1

Avagacestat + Decitabine = compound: NC(=O)[C@@H](CCC(F)(F)F)N(Cc1ccc(-c2ncon2)cc1F)S(=O)(=O)c1ccc(Cl)cc1 [Avagacestat] + Nc1ncn([C@H]2C[C@H](O)[C@@H](CO)O2)c(=O)n1 [Decitabine] (partner 2 µM)
Procedure, shortened: as §1

Avagacestat + Olaparib = compound: NC(=O)[C@@H](CCC(F)(F)F)N(Cc1ccc(-c2ncon2)cc1F)S(=O)(=O)c1ccc(Cl)cc1 [Avagacestat] + O=C(c1cc(Cc2n[nH]c(=O)c3ccccc23)ccc1F)N1CCN(C(=O)C2CC2)CC1 [Olaparib] (partner 8 µM)
Procedure, shortened: as §1

[1] = compound: NC(=O)[C@@H](CCC(F)(F)F)N(Cc1ccc(-c2ncon2)cc1F)S(=O)(=O)c1ccc(Cl)cc1 [Avagacestat] + CC(=O)c1c(C)c2cnc(Nc3ccc(N4CCNCC4)cn3)nc2n(C2CCCC2)c1=O [Palbociclib] (partner 0.5 µM)
Procedure, shortened: as §1

Work on NCI-H1623 yielded a relative viability (Avagacestat + Tozasertib; first compound 0.08 µM) of 0.448, a relative viability (Avagacestat + Tozasertib; first compound 0.253 µM) of 0.446 and a relative viability (Avagacestat + Tozasertib; first compound 0.8 µM) of 0.456. The relative viability (Avagacestat + Tozasertib; first compound 2.53 µM) was 0.46, the relative viability (Avagacestat + Tozasertib; first compound 8 µM) was 0.445 and the relative viability (Avagacestat + Dasatinib; first compound 0.08 µM) was 0.525. For the same cell line, the relative viability (Avagacestat + Dasatinib; first compound 0.253 µM) was 0.567, the relative viability (Avagacestat + Dasatinib; first compound 0.8 µM) was 0.575 and the relative viability (Avagacestat + Dasatinib; first compound 2.53 µM) was 0.511. It also gave a relative viability (Avagacestat + Dasatinib; first compound 8 µM) of 0.577, a relative viability (Avagacestat + Luminespib; first compound 0.08 µM) of 0.491 and a relative viability (Avagacestat + Luminespib; first compound 0.253 µM) of 0.484. It also gave a relative viability (Avagacestat + Luminespib; first compound 0.8 µM) of 0.913, a relative viability (Avagacestat + Luminespib; first compound 2.53 µM) of 0.609 and a relative viability (Avagacestat + Luminespib; first compound 8 µM) of 0.475. For the same cell line, the relative viability (Avagacestat + Phenformin; first compound 0.08 µM) was 0.576, the relative viability (Avagacestat + Phenformin; first compound 0.253 µM) was 0.603 and the relative viability (Avagacestat + Phenformin; first compound 0.8 µM) was 0.614. For the same cell line, the relative viability (Avagacestat + Phenformin; first compound 2.53 µM) was 0.577, the relative viability (Avagacestat + Phenformin; first compound 8 µM) was 0.63 and the relative viability (Avagacestat + OSI-027; first compound 0.08 µM) was 0.437. For the same cell line, the relative viability (Avagacestat + OSI-027; first compound 0.253 µM) was 0.454, the relative viability (Avagacestat + OSI-027; first compound 0.8 µM) was 0.508 and the relative viability (Avagacestat + OSI-027; first compound 2.53 µM) was 0.424. The relative viability (Avagacestat + OSI-027; first compound 8 µM) was 0.47, the relative viability (Avagacestat + Foretinib; first compound 0.08 µM) was 0.879 and the relative viability (Avagacestat + Foretinib; first compound 0.253 µM) was 0.95. For the same cell line, the relative viability (Avagacestat + Foretinib; first compound 0.8 µM) was 1.08, the relative viability (Avagacestat + Foretinib; first compound 2.53 µM) was 0.813 and the relative viability (Avagacestat + Foretinib; first compound 8 µM) was 0.86. For the same cell line, the relative viability (Avagacestat; 0.08 µM) was 1.02, the relative viability (Avagacestat; 0.253 µM) was 0.935 and the relative viability (Avagacestat; 0.8 µM) was 1.1. It also gave a relative viability (Avagacestat; 2.53 µM) of 0.921 and a relative viability (Avagacestat; 8 µM) of 1.
NCI-H2342 was tested, and the relative viability (Avagacestat + Vorinostat; first compound 0.08 µM) was 0.845, the relative viability (Avagacestat + Vorinostat; first compound 0.253 µM) was 0.822 and the relative viability (Avagacestat + Vorinostat; first compound 0.8 µM) was 0.842. The relative viability (Avagacestat + Vorinostat; first compound 2.53 µM) was 0.705, the relative viability (Avagacestat + Vorinostat; first compound 8 µM) was 0.774 and the relative viability (Avagacestat + Tozasertib; first compound 0.08 µM) was 0.593. The relative viability (Avagacestat + Tozasertib; first compound 0.253 µM) was 0.48, the relative viability (Avagacestat + Tozasertib; first compound 0.8 µM) was 0.57 and the relative viability (Avagacestat + Tozasertib; first compound 2.53 µM) was 0.493. For the same cell line, the relative viability (Avagacestat + Tozasertib; first compound 8 µM) was 0.527, the relative viability (Avagacestat + Pemetrexed; first compound 0.08 µM) was 0.849 and the relative viability (Avagacestat + Pemetrexed; first compound 0.253 µM) was 0.803. It also gave a relative viability (Avagacestat + Pemetrexed; first compound 0.8 µM) of 0.903, a relative viability (Avagacestat + Pemetrexed; first compound 2.53 µM) of 0.725 and a relative viability (Avagacestat + Pemetrexed; first compound 8 µM) of 0.782. It also gave a relative viability (Avagacestat + AZD7762; first compound 0.08 µM) of 0.479, a relative viability (Avagacestat + AZD7762; first compound 0.253 µM) of 0.536 and a relative viability (Avagacestat + AZD7762; first compound 0.8 µM) of 0.589. For the same cell line, the relative viability (Avagacestat + AZD7762; first compound 2.53 µM) was 0.499, the relative viability (Avagacestat + AZD7762; first compound 8 µM) was 0.438 and the relative viability (Avagacestat + Trametinib; first compound 0.08 µM) was 0.725. It also gave a relative viability (Avagacestat + Trametinib; first compound 0.253 µM) of 0.771, a relative viability (Avagacestat + Trametinib; first compound 0.8 µM) of 0.784 and a relative viability (Avagacestat + Trametinib; first compound 2.53 µM) of 0.766. For the same cell line, the relative viability (Avagacestat + Trametinib; first compound 8 µM) was 0.693, the relative viability (Avagacestat + Decitabine; first compound 0.08 µM) was 0.738 and the relative viability (Avagacestat + Decitabine; first compound 0.253 µM) was 0.686. For the same cell line, the relative viability (Avagacestat + Decitabine; first compound 0.8 µM) was 0.706, the relative viability (Avagacestat + Decitabine; first compound 2.53 µM) was 0.695 and the relative viability (Avagacestat + Decitabine; first compound 8 µM) was 0.742. It also gave a relative viability (Avagacestat + Dasatinib; first compound 0.08 µM) of 0.344, a relative viability (Avagacestat + Dasatinib; first compound 0.253 µM) of 0.341 and a relative viability (Avagacestat + Dasatinib; first compound 0.8 µM) of 0.334. It also gave a relative viability (Avagacestat + Dasatinib; first compound 2.53 µM) of 0.31, a relative viability (Avagacestat + Dasatinib; first compound 8 µM) of 0.302 and a relative viability (Avagacestat + Luminespib; first compound 0.08 µM) of 0.742. It also gave a relative viability (Avagacestat + Luminespib; first compound 0.253 µM) of 0.703, a relative viability (Avagacestat + Luminespib; first compound 0.8 µM) of 0.648 and a relative viability (Avagacestat + Luminespib; first compound 2.53 µM) of 0.709. It also gave a relative viability (Avagacestat + Luminespib; first compound 8 µM) of 0.663, a relative viability (Avagacestat + Phenformin; first compound 0.08 µM) of 0.634 and a relative viability (Avagacestat + Phenformin; first compound 0.253 µM) of 0.53. The relative viability (Avagacestat + Phenformin; first compound 0.8 µM) was 0.629, the relative viability (Avagacestat + Phenformin; first compound 2.53 µM) was 0.59 and the relative viability (Avagacestat + Phenformin; first compound 8 µM) was 0.588. It also gave a relative viability (Avagacestat + Olaparib; first compound 0.08 µM) of 0.441, a relative viability (Avagacestat + Olaparib; first compound 0.253 µM) of 0.384 and a relative viability (Avagacestat + Olaparib; first compound 0.8 µM) of 0.486. The relative viability (Avagacestat + Olaparib; first compound 2.53 µM) was 0.458, the relative viability (Avagacestat + Olaparib; first compound 8 µM) was 0.451 and the relative viability (Avagacestat + OSI-027; first compound 0.08 µM) was 0.589. For the same cell line, the relative viability (Avagacestat + OSI-027; first compound 0.253 µM) was 0.597, the relative viability (Avagacestat + OSI-027; first compound 0.8 µM) was 0.674 and the relative viability (Avagacestat + OSI-027; first compound 2.53 µM) was 0.602. It also gave a relative viability (Avagacestat + OSI-027; first compound 8 µM) of 0.572, a relative viability ([1]; first compound 0.08 µM) of 0.527 and a relative viability ([1]; first compound 0.253 µM) of 0.482. For the same cell line, the relative viability ([1]; first compound 0.8 µM) was 0.523, the relative viability ([1]; first compound 2.53 µM) was 0.523 and the relative viability ([1]; first compound 8 µM) was 0.552. It also gave a relative viability (Avagacestat + Foretinib; first compound 0.08 µM) of 1.22, a relative viability (Avagacestat + Foretinib; first compound 0.253 µM) of 1.05 and a relative viability (Avagacestat + Foretinib; first compound 0.8 µM) of 0.924. The relative viability (Avagacestat + Foretinib; first compound 2.53 µM) was 1.02, the relative viability (Avagacestat + Foretinib; first compound 8 µM) was 0.939 and the relative viability (Avagacestat; 0.08 µM) was 0.955. It also gave a relative viability (Avagacestat; 0.253 µM) of 0.906, a relative viability (Avagacestat; 0.8 µM) of 0.935 and a relative viability (Avagacestat; 2.53 µM) of 0.888. For the same cell line, the relative viability (Avagacestat; 8 µM) was 0.949.
